Assay [1] deals with HeLa cervical cancer cells. The assay is described as follows: MTT proliferation assay, HeLa. The assay is classed as cell-based, human. The following applies: 24 h proliferation assay. The protocol:
(§1) (LC3 = Microtubule-associated protein light chain 3) (Fig. 2b, bottom).
(§2) Cells were seeded in 96 well plates at 20,000 cells/well, allowed to proliferate for 24 h before treatment as described in the main text. 0.5 mg ml^−1 MTT (thiazolyl blue tetrazolium bromide) dissolved in serum-free media was added for 60 minutes and the formazan product eluted using acidified isopropanol. The absorbance at 540 nm was quantified by plate reader (reference wavelength 650 nm). The metabolic activity of the cell population was determined as a percentage of a negative (solvent) control.
A general note: Tetrazolium assays rely on reduction of a dye to a coloured formazan, in cell work by metabolically active cells.

The subject of a further assay is MCF7 breast cancer cells. Kind of assay: MTT proliferation assay, MCF7. The assay is classed as cell-based, human. The conditions noted are these: 24 h proliferation assay. The protocol:
as §1, §2

For assay [2], the system named is primary human foreskin fibroblasts (HFF). The assay is described as follows: MTT proliferation assay, HFF. In kind it is cell-based. The conditions noted are these: 24 h proliferation assay. The protocol:
as §1, §2

Assay [3] concerns HeLa cells. Kind of assay: quantification of apoptotic morphology (pyknosis/karyorrhexis). In kind it is cell-based, human. The following applies: single-agent treatment, 48 h (1 40 μM; CHIR-124 500 nM). The protocol: With this in mind, and considering the strong Chk1 activation in response to 1, HeLa cervical cancer cells, which are […][44], were exposed to a combination of 1 plus the Chk1 inhibitor CHIR-124[45] and the impact of co-treatment upon cell viability determined. A non-cytotoxic dose of 500 nM CHIR-124 was used and results were compared to single-agent treatment. […] Minimal enhancement of the anti-proliferative effect of 2 by CHIR-124 was observed (Fig. S15b), in agreement with 2 operating via a Chk1-independent mechanism.
Figure 5 Concurrent treatment of [Ru(dppz)2(PIP)]^2+ plus the Chk1 inhibitor CHIR-124 potentiates synergistic apoptosis in cancer cells. (a) Viability of HeLa (cervical cancer) or hSAEC1-KT (normal epithelial) cells after incubation with 1 in the absence or presence of Chk1 inhibitor CHIR-124 (500 nM) for 48 h constant exposure. (b) Morphological evidence for apoptosis (pyknosis/karyorrhexis, arrows) in HeLa cells treated with 40 μM 1 plus CHIR-124 for 48 h. Scale bars = 20 μm. (c) Quantification of apoptotic cells for experimental conditions as shown in (b). Equivalent results for 2 (40 μM, 48 h) included. Data mean of two independent experiments +/− SD. […] (f) Quantification of γH2AX foci from cells treated as in (e). […] Minimum of 150 cells counted per experiment. […]

Assay [4] relates to HeLa cells. The assay is described as follows: cell-cycle analysis by PI flow cytometry. The assay is classed as cell-based, human. The following applies: cisplatin 10 μM, 24 h (Fig. 4c). The protocol:
Figure 4 [Ru(dppz)2(PIP)]^2+ induces Chk1 checkpoint kinase activation and G1-S cell-cycle arrest. […] See SI for densitometry. (c) Cell-cycle distributions of HeLa cells incubated with DMSO (0.2%), 1 or 2 at the stated concentrations and time. DNA content was quantified using propidium iodide (PI) and analysed by flow cytometry. […] Data mean of three independent experiments +/− SD. […] They are copied as bare numbers, left to right. / The gate numbers in panel c are very small, so 3, 5, 6, 8 and 9 cannot be told apart with certainty. All the values below are best readings. / DMSO: 0.86, 57.4, 22.5, 16.8 uncertain / 1 (40 μM, 3 h): 0.46, 72.7, 13.5, 8.77 uncertain / 1 (40 μM, 8 h): 1.69, 73.2, 15.3, 3.6 uncertain / 1 (40 μM, 24 h): 1.2, 72.9, 15.8, 6.47 uncertain. […] 32.4 is partly overlapped by the peak line.
Cells were washed with PBS and detached using Trypsin. After centrifugation at 1000 rpm for 5 min, cells were fixed in cold 70% ethanol for 30 mins, centrifuged and re-suspended in PBS. Samples were stained using 10 μg/ml propidium iodide (PI) and 200 μg/ml RNAase A for 30 mins before FACS analysis using a Biosciences LSRII Flow Cytometer. A minimum of 10,000 cells were counted for each sample and data were processed using FloJo software. […]
(In general: Flow cytometry measures light scatter and fluorescence of single cells or particles in a stream.)

The record followed here is article PMC4997316, “A ruthenium polypyridyl intercalator stalls DNA replication forks, radiosensitizes human cancer cells and is enhanced by Chk1 inhibition” (Scientific Reports, 2016).

Molecules are shown by their SMILES. Bounds are passed on as bounds.

Turning to `O=C1c2c(O)ccc(O)c2C(=O)c2c(NCCNCCO)ccc(NCCNCCO)c21` [MX, mitoxantrone], the IC50 in assay [1] was 3 µM; in assay [1] (Homo sapiens, HeLa, 24 h) it was below 5 µM; with MCF7 breast cancer cells, 3.6 µM; in the assay with MCF7 breast cancer cells (Homo sapiens, MCF7, 24 h), below 5 µM; in assay [2], 4.2 µM; in assay [2] (Homo sapiens, Fibroblast, 24 h), below 5 µM.

Take `O=c1[nH]c2ccc(Cl)cc2c(N[C@@H]2CN3CCC2CC3)c1-c1nc2ccccc2[nH]1` [CHIR-124, reference compound]: the “morphological evidence of apoptosis (pyknosis/karyorrhexis)” value in the assay on HeLa cells [3] is recorded as below 5%.

Consider `N.N.[Cl][Pt][Cl]` [Cisplatin, cis-diamminedichloroplatinum(II)], for which the IC50 in assay [1] is 9 µM; in the assay on MCF7 breast cancer cells, 11 µM; in assay [2], above 100 µM. Also, the “cells with sub-G1 DNA content” value in the assay with HeLa cells [4] is ~ 30%.

Broadly, the IC50 is the concentration needed to halve the response being measured. The low end stands for higher potency, the high end for lower potency.
